The record followed here is patent publication US12448363B2, “Kinase inhibitors” (Vidya Therapeutics, Inc., priority 2020, dated 2025).

SMILES strings stand for the structures.

Data set [1] in a line: Plasma and total brain concentrations at 1 h post a single oral administration to female C57BL/6 mice. Type of data set: in vivo. To be noted: mouse, 1 h post single oral 10 mg/kg, LC-MS/MS, read-out: Brain:plasma ratio. The procedure: Determination of Plasma and Total Brain Concentrations at 1 h Post a Single Oral Administration of Test Compound to Female C57BL/6 Mice
The appropriate amount of test article was dissolved 10% dimethylacetamide (DMA)/90% (20% hydroxypropyl-b-cyclodextrin (HP-β-CD) w/v in water to obtain a final concentration of 1 mg/mL for oral dosing. Sonication, vortex, and homogenization was used as needed. Three female C57BL/6 mice aged 7-9 weeks (20-30 grams) were dosed by oral gavage 10 mg/kg solution of the test article.
Concentrations of representative test compounds in the plasma and brain samples (using plasma and brain homogenate standard curve for all samples appropriately) were analyzed using LC-MS/MS. With respect to the brain:plasma ratio, Table 11 lists the results as follows: • “A” denotes a ratio >0.5; • “B” denotes a ratio between 0.1 and 0.5; and • “C” denotes a ratio <0.1.

The target of data set [2] is T1, BTK (Homo sapiens, UniProt Q06187). Put plainly: Assay to determine activity against BTK (EZ reader, FLPeptide). Type of data set: biochemical. Further details: purchased Carna. The settings on record: ATP (1 mM), BTK (2 nM), room temperature for 90 minutes. In outline: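 Human BTK (2 nM) phosphorylated FLPeptide (1.5 uM) with 1 mM ATP in 50 mM HEPES pH7.5, 10 mM MgCl2, 2 mM DTT, 1 mM EGTA, 0.01% Brij-35, 0.05% BSA; 11-point 3-fold compound dilutions. After 90 min at room temperature, EDTA stop; conversion ratio read on EZ reader, IC50 from curve fit with free top and bottom.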

The target in data set [3] is T1, BTK. Put plainly: Assay to determine BTK inactivation rate in human whole blood (ELISA of unoccupied BTK). Type of data set: cell-based. Set-up: Human whole blood is obtained from StemExpress; tissue StemExpress; host or cells: human whole blood. To be noted: 37° C., 5, 15, 30, 60 minutes; for kinact/KI: read-out: BTK hWB Kinact/Ki. The procedure: Human Whole Blood Compound Treatment and Lysis
Human whole blood is obtained from StemExpress and kept at ambient temperature until the time of the experiment. […] This is prepared fresh each experimental day. […] Compounds are reconstituted to stocks of 10 mM and are diluted in two-fold serial dilutions to generate an 8-point curve in DMSO, with the last point being DMSO only, creating a 100× dilution series. A working 10× dilution series is created using 1.0 μL of the prepared DMSO titration, 100×, into […] 1×PBS in order to keep the DMSO constant. The human whole blood is added in the volume of 225 μL per well in a new 96w v-bottom plate, where one column of eight wells is sufficient for testing one compound. For compound treatment, 25 μL of 10× dilution series in PBS is added to the 225 μL whole blood, followed by briefly pipetting up and down twice. The plates are covered with lids and incubated at 37° C. for 5, 15, 30, 60 minutes. At each timepoint, 30 μL of treated blood is pulled from each column and added to preloaded collection plates that contain 30 μL of supplemented lysis buffer and mixed briefly. The collected and lysed samples shake on rotator for 60 minutes at room temperature. These samples are used fresh for detection via ELISA, and remaining sample is frozen at −80° C. if a repeat is necessary.
ELISA: Determining Amount of Unoccupied BTK
All streptavidin pre-coated plates (R&D Systems, #CP004) are brought to room temperature while samples are lysing. Assay Buffer 1, 1×PBS+0.05% Tween 20+1% BSA is prepared and stored at 4° C. when not in use. Using this Assay Buffer, assay buffer+1× protease/phosphatase inhibitor cocktail (PICs) is prepared in the amount needed for all samples. Assay Buffer+PICs in the volume of 90 μL/well is added to the ELISA plate. Lysed blood sample (10 μL) is added to the ELISA plate. BTK recombinant protein dilutions are prepared in assay buffer+PICS for use as a μM). The standard is loaded into the ELISA plate at 100 μL/well, in duplicate. These samples and standards remain in the plate, sealed, overnight at 4° C. The following day, the plate is washed four times with 1× Wash Buffer (1×PBS+0.05% Tween 20) using a plate washer. The plate is inverted to expel all fluid each time and blotted on clean paper towels to remove remaining liquid. Assay Buffer 2 is prepared (1×PBS+0.05% Tween 20+0.05% BSA) and kept at 4° C. when not in use. […] Diluted a-BTK antibody is added at 100 μl/well. The plate is covered with adhesive film and incubated for 90 minutes at room temperature. The plate is washed four times with 1× Wash Buffer (1×PBS+0.05% Tween 20) using a plate washer. The plate is inverted to expel all fluid each time and blotted on clean paper towels to remove remaining liquid. […] The diluted antibody is added at 100 μl/well. The plate is covered with adhesive film and incubated for one hour at room temperature. The plate is washed four times with 1× Wash Buffer using a plate washer. The plate is inverted to expel all fluid each time and blotted on clean paper towels to remove remaining liquid. […] The plate is incubated at room temperature in the dark for −5-10 minutes. The reaction is stopped by adding 50 μl/well 2N sulfuric acid (H2SO4) (R&D Systems, #DY994). The plate is read in a plate reader at the wavelengths […] and 570 nm (correction wavelength). Using Graphpad Prism, an XY table+graph is created, listing 0-60 minutes as X axis and concentration as Y axis. A One Phase Decay model fit is applied to the data. Checking Results table, the K values are obtained and new XY table+graph are created. Concentration is assigned to the X axis and K values from first analysis are entered. The Michaelis-Menten equation is applied to the data.
(In general: An ELISA detects its analyte on a solid surface through an enzyme-linked reagent.)

T1 sequence (Q06187 whole entry): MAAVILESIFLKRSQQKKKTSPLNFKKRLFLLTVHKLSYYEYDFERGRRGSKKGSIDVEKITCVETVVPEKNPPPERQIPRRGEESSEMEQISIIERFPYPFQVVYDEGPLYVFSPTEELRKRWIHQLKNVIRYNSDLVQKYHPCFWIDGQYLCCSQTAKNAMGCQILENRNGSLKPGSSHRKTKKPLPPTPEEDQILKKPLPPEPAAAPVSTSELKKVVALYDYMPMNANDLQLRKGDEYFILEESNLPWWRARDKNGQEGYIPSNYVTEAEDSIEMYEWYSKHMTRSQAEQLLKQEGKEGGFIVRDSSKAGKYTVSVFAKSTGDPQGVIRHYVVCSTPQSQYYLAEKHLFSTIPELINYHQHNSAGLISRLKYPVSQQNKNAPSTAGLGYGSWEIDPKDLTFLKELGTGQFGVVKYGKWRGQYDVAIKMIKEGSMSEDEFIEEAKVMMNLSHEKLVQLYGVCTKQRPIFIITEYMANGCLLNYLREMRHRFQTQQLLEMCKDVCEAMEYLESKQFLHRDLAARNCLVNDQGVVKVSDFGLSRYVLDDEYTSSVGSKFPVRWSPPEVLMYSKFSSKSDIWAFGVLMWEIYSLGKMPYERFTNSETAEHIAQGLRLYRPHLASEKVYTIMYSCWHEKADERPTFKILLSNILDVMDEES

What is called IC50 is the concentration that gives 50% inhibition. A lower IC50 goes with inhibition by little substance. Regarding `CC#CC(=O)N1CCCC2CN(c3c(F)cc(C(N)=O)c4[nH]c(C)c(Cl)c34)CC21` (stereo not drawn) [Compound 40, 4-(1-(but-2-ynoyl)octahydro-6H-pyrrolo[3,4-b]pyridin-6-yl)-3-chloro-5-fluoro-2-methyl-1H-indole-7-carboxamide], in data set [1], the Kp at 1 h was more than 0.5. Moreover, the IC50 at BTK [2] was less than 0.01 µM. The kinact/KI at BTK [3] is less than 1670 M⁻¹ s⁻¹.

Regarding `C=CC(=O)N1CCC2CCN(c3c(F)cc(C(N)=O)c4[nH]c(C)c(Cl)c34)CC21` (single isomer, unassigned) [Compound 29a, 4-(1-acryloyloctahydro-6H-pyrrolo[2,3-c]pyridin-6-yl)-3-chloro-5-fluoro-2-methyl-1H-indole-7-carboxamide], the Kp at 1 h in data set [1] was in the range of 0.1 to 0.5. Moreover, the IC50 against BTK [2] lay in the range of 0.01 to 0.1 µM. Besides, the kinact/KI on BTK [3] is less than 1670 M⁻¹ s⁻¹.

Turning to `C=CC(=O)N1CCc2c(-c3c(F)cc(C(N)=O)c4[nH]c(C)c(Cl)c34)cccc2C1C` (racemic) [Compound 22a, 4-(2-acryloyl-1-methyl-1,2,3,4-tetrahydroisoquinolin-5-yl)-3-chloro-5-fluoro-2-methyl-1H-indole-7-carboxamide], the Kp at 1 h in data set [1] is 0.1 to 0.5. The IC50 against BTK [2] was less than 0.01 µM. In addition, on BTK [3], the kinact/KI lay within 1670 to 16700 M⁻¹ s⁻¹.

With `C=CC(=O)N1CCC[C@@H](c2c(F)c(F)c(C(N)=O)c3[nH]c(C)c(Cl)c23)C1` [Compound 16, (S)-4-(1-acryloylpiperidin-3-yl)-3-chloro-5,6-difluoro-2-methyl-1H-indole-7-carboxamide], the Kp at 1 h in data set [1] was in the range of 0.1 to 0.5. For the same molecule, at BTK [2], the IC50 is less than 0.01 µM. On BTK [3], the kinact/KI is more than 16700 M⁻¹ s⁻¹.

For the molecule `CC#CC(=O)N[C@H]1C[C@@H](F)CN(c2c(F)cc(C(N)=O)c3[nH]c(C)c(C)c23)C1` [Compound 33, 4-((3S,5R)-3-(but-2-ynamido)-5-fluoropiperidin-1-yl)-5-fluoro-2,3-dimethyl-1H-indole-7-carboxamide], the Kp at 1 h in data set [1] was less than 0.1. The molecule also displayed an IC50 against BTK [2] of less than 0.01 µM. In addition, on BTK [3], the kinact/KI was more than 16700 M⁻¹ s⁻¹.

As to `C=CC(=O)N1CCC2CCN(c3c(F)cc(C(N)=O)c4[nH]c(C)c(C)c34)CC21` (single isomer, unassigned) [Compound 32b, 4-(1-acryloyloctahydro-6H-pyrrolo[2,3-c]pyridin-6-yl)-5-fluoro-2,3-dimethyl-1H-indole-7-carboxamide], in data set [1], the Kp at 1 h is less than 0.1. Moreover, the IC50 against BTK [2] lay in the range of 0.01 to 0.1 µM. Further, the “BTK hWB Kinact/Ki” value on BTK [3] is “C (a Kinact/Ki<1×10^−4 nM^−1 min^−1)”.

For the molecule `CC#CC(=O)N[C@H]1C[C@H](F)CN(c2c(F)cc(C(N)=O)c3[nH]c(C)c(C)c23)C1` [Compound 35, 4-((3S,5S)-3-(but-2-ynamido)-5-fluoropiperidin-1-yl)-5-fluoro-2,3-dimethyl-1H-indole-7-carboxamide], in data set [1], the Kp at 1 h was less than 0.1. Besides, on BTK [2], the IC50 is less than 0.01 µM. Further, at BTK [3], the kinact/KI was more than 16700 M⁻¹ s⁻¹.

As to `C=CC(=O)N1CCC[C@@H](c2c(F)cc(C(N)=O)c3[nH]c(C)c(Cl)c23)C1` [Compound 2a, (S)-4-(1-acryloylpiperidin-3-yl)-3-chloro-5-fluoro-2-methyl-1H-indole-7-carboxamide], in data set [1], the Kp at 1 h is 0.1 to 0.5. The IC50 at BTK [2] is less than 0.01 µM. The kinact/KI on BTK [3] was more than 16700 M⁻¹ s⁻¹.

Turning to `C=CC(=O)N1CCC[C@@H](c2c(F)c(F)c(C(N)=O)c3[nH]c(C)c(F)c23)C1` [Compound 6b, (S)-4-(1-acryloylpiperidin-3-yl)-3,5,6-trifluoro-2-methyl-1H-indole-7-carboxamide], the Kp at 1 h in data set [1] fell in the range of 0.1 to 0.5. On BTK [2], this molecule returned an IC50 of less than 0.01 µM. For the same molecule, the kinact/KI on BTK [3] is more than 16700 M⁻¹ s⁻¹.

`C=CC(=O)N1CCc2c(cccc2-c2c(F)cc(C(N)=O)c3[nH]c(C)c(Cl)c23)C1` (single isomer, unassigned) [Compound 20b]: the Kp at 1 h in data set [1] is 0.1 to 0.5. On BTK [2], the IC50 was less than 0.01 µM. The kinact/KI at BTK [3] lay within 1670 to 16700 M⁻¹ s⁻¹.

On to `CC#CC(=O)N[C@H]1C[C@@H](F)CN(c2c(F)cc(C(N)=O)c3[nH]c(C)c(Cl)c23)C1` [Compound 27, 4-((3S,5R)-3-(but-2-ynamido)-5-fluoropiperidin-1-yl)-3-chloro-5-fluoro-2-methyl-1H-indole-7-carboxamide], for which the Kp at 1 h in data set [1] lay in the range of 0.1 to 0.5. At BTK [2], this molecule came in with an IC50 of less than 0.01 µM. Further, the kinact/KI on BTK [3] was in the range of 1670 to 16700 M⁻¹ s⁻¹.

As for `C=CC(=O)N1CCC=C(c2c(F)cc(C(N)=O)c3[nH]c(C)c(Cl)c23)C1` [Compound 1, 4-(1-acryloyl-1,2,5,6-tetrahydropyridin-3-yl)-3-chloro-5-fluoro-2-methyl-1H-indole-7-carboxamide], the Kp at 1 h in data set [1] is less than 0.1. Also, the IC50 at BTK [2] is less than 0.01 µM. For the same molecule, on BTK [3], the kinact/KI is more than 16700 M⁻¹ s⁻¹.

On to `C=CC(=O)N1CCC[C@H](c2c(F)c(F)c(C(N)=O)c3[nH]c(C)c(F)c23)C1` [Compound 6a, (R)-4-(1-acryloylpiperidin-3-yl)-3,5,6-trifluoro-2-methyl-1H-indole-7-carboxamide], for which the Kp at 1 h in data set [1] was in the range of 0.1 to 0.5. Further, the IC50 on BTK [2] was less than 0.01 µM. For the same molecule, the kinact/KI at BTK [3] is more than 16700 M⁻¹ s⁻¹.

For `C=CC(=O)N1CCC2CCN(c3c(F)cc(C(N)=O)c4[nH]c(C)c(Cl)c34)CC21` (racemic) [Compound 29, 4-(1-acryloyloctahydro-6H-pyrrolo[2,3-c]pyridin-6-yl)-3-chloro-5-fluoro-2-methyl-1H-indole-7-carboxamide], the Kp at 1 h in data set [1] is 0.1 to 0.5. Besides, the IC50 on BTK [2] lay in the range of 0.01 to 0.1 µM. In addition, the kinact/KI at BTK [3] is 1670 to 16700 M⁻¹ s⁻¹.
